{"source": "patent US8337828B2", "about": "“Use of thymosin alpha 1, alone or in combination with PTX3 or ganciclovir, for the treatment of cytomegalovirus infection” (priority 2006, dated 2012)", "key": {"MCMV": {"system": "MCMV", "experiment": "MCMV infection in mice, virus titers by standard plaque assay on tissues", "format": "in vivo, BALB/c and C57BL6 mice", "procedure": "BALB/c (FIG. 1a) and C57BL6 (FIG. 1b) mice were infected with 1×10^5 or 5×10^5 PFU of MCMV, respectively. Virus titers were quantified on MEF cells by standard plaque assay on tissues removed at different times (FIG. 1a) or a week after infection (FIG. 1b) and expressed as log 10(mean±standard errors, SE). Thymosin alpha 1 (200 μg/kg given for 7 or 14 days) and GCV (40 mg/kg given three times a week) were administered beginning the day of the infection. Controls received the scrambled peptide. Results are representative of 4 independent experiments. Bars indicate the standard errors. *P<0.05, viral load between treated and untreated mice.\n(§1) BALB/c or C57BL6 mice were infected with 10^5 or 5×10^5 PFU of MCMV, respectively. Virus titers, expressed as log 10, were quantified on MEF cells by standard plaque assay on lung tissues removed 7 days after the infection. Tα1 (200 μg/kg/daily for a week) and/or GCV (40 mg/kg, three times a week) were administered beginning the day of the infection. Cytokine (pg/ml) levels in culture supernatants of spleen cells (7 days) were determined by ELISA assay. Bars indicate the standard errors. *P<0.05, treated vs untreated mice. Results are representative of 3 independent experiments.\nInbred C57BL6 and BALB/c mice were injected intraperitoneally (i.p.) with 1×10^5 (BALB/c) or 5×10^5 (C57BL6) plaque forming units (PFU) of MCMV. Virus titers were quantified on MEF cells by standard plaque assay on tissues removed a day after treatment. Treatments were as follow: Tα1 ([…]) and PTX3 (1 mg/k/ip) (SIGMA-Tau, Pomezia, Rome, Italy) were given daily for 7 consecutive days beginning the day of the infection. Controls received the scrambled peptide. All organs from uninfected animals were negative viruses. Virus titers are expressed as log 10 (mean±standard errors, SE).\nMice. Wild-type (WT) inbred C57BL6 and BALB/c mice, 8 to 12 weeks old, were purchased from Charles River Breeding Laboratories (Calco, Italy). Pairs of homozygous TLR9-(TLR9−/−), TLR4-(TLR4−/−), and MyD88-(MyD88−/−)-deficient mice (on the C57BL6 background), were bred under specific pathogen-free conditions at the breeding facilities of the University of Perugia, Perugia, Italy. Experiments were performed following protocols approved by the institutional animal committee and in accordance with European Economic Community Council Directive as well as institutional animal care and use guidelines.\nVirus, infection and treatments. Stocks of Smith strain MCMV salivary gland extracts were prepared from BALB/c mice and titered in a standard plaque assay on BALB/c murine embryonic fibroblast (MEF) cells (J. Gen. Virol. 2002; 83:2983-2993). Mice were injected intraperitoneally (i.p.) with 1×10^5 (C57BL6) plaque forming units (PFU) of MCMV. Virus titers were quantified on MEF cells by standard plaque assay on tissues removed at different times. Treatments were as follows: Thymosin alpha 1 and the scrambled polypeptide (both from SciClone Pharmaceuticals, San Mateo, CA) were supplied as purified (the endotoxin levels were <0.03 pg/ml, by a standard limulus lysate assay) sterile, lyophilized, acetylated polypeptide. The sequences were as follows: Ac-Ser-Asp-Ala-Ala-Val-Asp-Thr-Ser-Ser-Glu -Ile-Thr-Thr-Lys-Asp-Leu-Lys-Glu-Lys-Lys-Glu-Val-Glu-Glu-Ala-Glu-Asn-O (Tα1) SEQ ID NO:1 and Ac-Ala-Lys-Ser-Asp-Val-Lys-Ala-Glu-Thr-Ser-Ser-Glu-Ile-Asp-Thr-Thr-Glu-Leu -Asp-Glu-Lys-Val-Glu-Val-Lys-Ala-Asn-Glu-OH (scrambled peptide) SEQ ID NO:2. The lyophilized powders were reconstituted in sterile water and 200 μg/kg/i.p. were given daily for 7 or 14 consecutive days beginning the day of the infection. Gancyclovir (GCV) (Cymevene; from Recordati, Milan, Italy) was administered at 40 mg/kg/i.p. three times a week, every other day, beginning 6 h after infection. Controls received the scrambled peptide or the diluent alone.\nPlaque assay. Plaque assay was determined on cells grown to subconfluence and incubated with serially diluted virus samples for 2 h at 37° C. (10). […]"}, "spleen cells": {"system": "spleen cells", "experiment": "Cytokine levels in culture supernatants of spleen cells from MCMV-infected mice (ELISA)", "format": "in vivo", "conditions": "BALB/c mice with MCMV infection, GCV compared with Thymosin alpha 1", "description": "Arrow indicates an inducible band. Lane 1, uninfected cells; lane 2, MCMV-infected; lane 3, Thymosin alpha 1 treated; lane 4, MCMV+Thymosin alpha 1 treated. (FIG. 3b) Cytokine production (pg/ml) by DC subsets treated as above. Bars indicate the standard errors. *P<0.05, cytokine production in MCMV-infected DC vs uninfected DC. **P<0.05, Thymosin alpha 1-treated vs untreated DC. (FIG. 3c) Cytokine production in mice during MCMV infection. Cytokine levels (pg/ml) in culture supernatants of spleen cells from mice with MCMV infection and treated for a week with Thymosin alpha 1 or GCV. *P<0.05, treated vs untreated mice. ND, not done.\nViral load (FIG. 4a) and cytokine production (FIG. 4b) in C57BL6, TLR4−/−, TLR9−/− and MyD88−/− mice infected with 5×10^5 PFU of MCMV and treated with 200 μg/kg Tα1 for a week. Virus titers, expressed as log 10, were quantified on MEF cells by standard plaque assay on infected tissues removed a week after infection and treatment. Cytokine (pg/ml) levels in culture supernatants of spleen cells were determined by ELISA assay. Bars indicate the standard errors. *P<0.05, Tα1-treated vs untreated mice. Results are representative of 3 independent experiments.\nas §1\nQuantification of cytokines by ELISA and ELISPOT assays. The levels of cytokines in the culture supernatants of mitogen-stimulated spleen cells (48 h stimulation with 10 μg/ml ConA) or MCMV-pulsed DC (24 h) were determined by ELISA (R&D Systems and PBL, Biomedical Lab, Milan, Italy). The detection limits (pg/ml) of the assays were <16 for IL-12 p70, <10 for IFN-., <3 for IL-10 and <10 for IFN-a. IFN-.-producing NK cells were enumerated by ELISPOT assay on purified NK (Virus Res. 2003; 98:17-467 25). Results are expressed as the mean number of cytokine-producing cells (±SE) per 10^5 cells, calculated using replicates of serial 2-fold dilutions of cells."}}, "data": [{"compound": "PTX3: long pentraxin protein with N-terminal domain and C-terminal domain similar to short pentraxins; from SIGMA-Tau", "values": [{"measurement": "viral titers in the lung", "setting": "MCMV; PTX3 alone, 1 mg/k/ip daily for 7 days, BALB/c or C57BL6 mice", "result": "decreased the viral titers"}]}, {"compound": "Ac-Ala-Lys-Ser-Asp-Val-Lys-Ala-Glu-Thr-Ser-Ser-Glu-Ile-Asp-Thr-Thr-Glu-Leu -Asp-Glu-Lys-Val-Glu-Val-Lys-Ala-Asn-Glu-OH (Ac-AKSDVKAETSSEIDTTELDEKVEVKANE-OH) [scrambled peptide]", "values": [{"measurement": "viral load in different visceral organs", "setting": "MCMV; 200 μg/kg for 7 days, both susceptible (BALB/c) and resistant (C57BL6) mice", "result": "not"}]}, {"compound": "Nc1nc(O)c2ncn(COC(CO)CO)c2n1", "note": "[GCV, Ganciclovir]", "values": [{"measurement": "IFN-a, IFN-. and IL-12p70 production", "setting": "spleen cells", "result": "comparable to those obtained with GCV"}]}]}
